Laboratory results: PubChem BioAssay (NCI)
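Dose response: 5 concentrations. Exposure: 48 h. Format: 96-well plates. Endpoint: linear interpolation; highest concentration if not reached. GI50 marks 50% less growth. TGI: concentration producing complete growth inhibition.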

Experiments:
Experiment in all cases: growth of human tumour cells (NCI), 48 h
[1] = tested on: SNB-75 CNS
[2] = tested on: HCT-116 colon
[3] = tested on: ACHN renal
[4] = tested on: A549 NSCLC
[5] = tested on: COLO 205 colon
[6] = tested on: NCI-H460 lung
[7] = tested on: SR leukemia
[8] = tested on: SK-MEL-28 melanoma
[9] = tested on: MDA-MB-231 breast

Brc1ccccc1C1SCc2nc3ccccc3n21 (configuration not stated)
TGI [1]: 47.1 µM | TGI [2]: 26 µM | TGI [3]: 81 µM | TGI [4]: > 100 µM | TGI [5]: 32.1 µM | TGI [6]: 44.5 µM | TGI [7]: 45.1 µM

O=c1cc(-c2ccccc2)oc2cc(OCCCOc3ccc4c(=O)cc(-c5ccccc5)oc4c3)ccc12
TGI [1]: > 100 µM | TGI [2]: > 100 µM | TGI [3]: > 100 µM | TGI [4]: > 100 µM | TGI [5]: > 100 µM | TGI [6]: > 100 µM | TGI [7]: > 100 µM | TGI [8]: > 100 µM

CCOC(=O)NC(=O)c1cn(CCCO)c(=O)[nH]c1=O
TGI [1]: > 100 µM | TGI [2]: > 100 µM | TGI [3]: > 100 µM | TGI [4]: > 100 µM | TGI [5]: > 100 µM | TGI [6]: > 100 µM | TGI [8]: > 100 µM

CCOC(=O)CC(=O)ON(C)C(C)=O
TGI [2]: > 100 µM | TGI [3]: > 100 µM | TGI [4]: > 100 µM | TGI [5]: > 100 µM | TGI [6]: > 100 µM | TGI [7]: > 100 µM

Cc1ccc(NC(=O)c2cc3cc(N=Nc4ccccc4C(=O)O)ccc3oc2=O)cc1
TGI [1]: > 100 µM | TGI [2]: > 100 µM | TGI [3]: > 100 µM | TGI [4]: > 100 µM | TGI [5]: > 100 µM | TGI [6]: > 100 µM | TGI [8]: > 100 µM

CCOC(=O)C(=C=C=C(c1ccccc1)c1ccccc1)C(=O)OCC
TGI [1]: 21.9 µM | TGI [2]: 38.6 µM | TGI [3]: 36.7 µM | TGI [4]: 74.5 µM | TGI [5]: 32.5 µM | TGI [6]: 46.5 µM | TGI [8]: 36.8 µM

CCN1c2ccccc2C(C(SC)S(=O)(=O)c2ccc(C)cc2)c2c1[nH]c(=O)n(C)c2=O (configuration not stated)
TGI [1]: 69.7 µM | TGI [2]: > 100 µM | TGI [4]: > 100 µM | TGI [5]: > 100 µM | TGI [8]: > 100 µM

CC1(C)C2CCC(=O)C1CC2 (configuration not stated)
TGI [9]: > 100 µM | TGI [1]: > 100 µM | TGI [2]: > 100 µM | TGI [3]: > 100 µM | TGI [4]: > 100 µM | TGI [5]: > 100 µM | TGI [6]: > 100 µM | TGI [8]: > 100 µM

CCc1cc(Cc2cc(CC)c(NC(=O)C(=O)Cc3ccccn3)c(CC)c2Cl)c(Cl)c(CC)c1NC(=O)C(=O)Cc1ccccn1
TGI [1]: > 100 µM | TGI [2]: > 100 µM | TGI [3]: > 100 µM | TGI [4]: > 100 µM | TGI [5]: > 100 µM | TGI [6]: > 100 µM | TGI [7]: > 100 µM | TGI [8]: > 100 µM

COC(OC)C(C)CC(=O)N(C)C (configuration not stated)
TGI [1]: > 100 µM | TGI [2]: > 100 µM | TGI [3]: > 100 µM | TGI [4]: > 100 µM | TGI [5]: > 100 µM | TGI [6]: > 100 µM | TGI [8]: > 100 µM

Clc1ccc(C(c2ccc(Cl)cc2)c2ccccn2)cc1
TGI [1]: > 100 µM | TGI [3]: 45.9 µM | TGI [4]: 38.6 µM | TGI [6]: 34.2 µM | TGI [7]: 49.8 µM

CC(=O)OC1COC(n2ccc3cc(Br)c([N+](=O)[O-])cc32)C(OC(C)=O)C1OC(C)=O (configuration not stated)
TGI [1]: 75.2 µM | TGI [3]: > 100 µM | TGI [4]: 92.3 µM | TGI [5]: 50 µM | TGI [6]: 69.5 µM | TGI [7]: > 100 µM | TGI [8]: > 100 µM

Cn1cnc([N+](=O)[O-])c1Sc1nc2ccccc2[nH]1
TGI [1]: 49.9 µM | TGI [2]: 30.1 µM | TGI [3]: 59.9 µM | TGI [4]: 54 µM | TGI [5]: 23.1 µM | TGI [6]: 64.9 µM | TGI [7]: 45.1 µM | TGI [8]: 26.1 µM

C/C(=N\NC(=S)NC(CCC(=O)O)C(=O)O)c1ccccn1 (configuration not stated)
TGI [1]: > 100 µM | TGI [2]: > 100 µM | TGI [3]: > 100 µM | TGI [4]: > 100 µM | TGI [5]: > 100 µM | TGI [6]: > 100 µM | TGI [7]: > 100 µM | TGI [8]: > 100 µM

CC(=O)/C(=C\c1cccc([N+](=O)[O-])c1)C(=O)Nc1ccccc1C
TGI [2]: > 100 µM | TGI [3]: > 100 µM | TGI [4]: > 100 µM | TGI [6]: > 100 µM | TGI [7]: > 100 µM | TGI [8]: > 100 µM

C#CC1(O)CCC2C3CCc4cc(Oc5nc(F)nc(-c6c7ccccc7c7sc8ccccc8n67)n5)ccc4C3CC[C@@]21C (some centres not stated)
TGI [1]: 89.3 µM | TGI [2]: > 100 µM | TGI [3]: > 100 µM | TGI [4]: > 100 µM | TGI [5]: > 100 µM | TGI [6]: > 100 µM | TGI [7]: > 100 µM | TGI [8]: > 100 µM

CC(C)=Cc1cc(C(=O)Nc2ccc(Cl)c(Cl)c2)nc(N)n1
TGI [1]: > 100 µM | TGI [2]: > 100 µM | TGI [3]: > 100 µM | TGI [4]: > 100 µM | TGI [6]: > 100 µM | TGI [8]: > 100 µM

Cn1c2ccccc2c2cc(-c3ccccc3)c3c(c21)C(=O)c1ccccc1C3=O
TGI [1]: > 100 µM | TGI [2]: 36.3 µM | TGI [4]: 79.1 µM | TGI [5]: 94.3 µM | TGI [7]: 31.4 µM | TGI [8]: 37.5 µM

[Cl-].[La+3].[O-]/N=C(\c1ccccc1)c1ccccn1.[O-]/N=C(\c1ccccc1)c1ccccn1.[O-]/N=C(\c1ccccc1)c1ccccn1
GI50 [1]: 27.8 µM | TGI [1]: 82 µM | GI50 [2]: 44 µM | TGI [2]: > 100 µM | GI50 [4]: 41.8 µM | TGI [4]: > 100 µM | GI50 [5]: 46.8 µM | TGI [5]: > 100 µM | GI50 [6]: 15 µM | TGI [6]: > 69.2 µM | GI50 [7]: 36.5 µM | TGI [7]: > 100 µM | GI50 [8]: 38.5 µM | TGI [8]: > 100 µM

COc1ccc(S(=O)(=O)NNS(C)(=O)=O)cc1
TGI [1]: > 100 µM | TGI [2]: > 100 µM | TGI [3]: > 100 µM | TGI [4]: > 100 µM | TGI [5]: > 100 µM | TGI [7]: > 100 µM

O=C(/C=C\c1ccc(Cl)c(Cl)c1)c1ccc(Cl)cc1Cl
TGI [1]: 46.8 µM | GI50 [2]: 2.68 µM | TGI [2]: > 100 µM | TGI [3]: 31.6 µM | TGI [4]: 60.7 µM | TGI [6]: 54.8 µM | GI50 [7]: 7.87 µM

c1ccc(COc2cccc3ccc[n+](Cc4ccccc4)c23)cc1
TGI [1]: 19.4 µM | TGI [3]: 52.7 µM | TGI [4]: > 100 µM | TGI [5]: 23.9 µM | TGI [6]: 35.7 µM | TGI [8]: 25.4 µM
